According to patent publication US20250064846A1, “TREATMENT AND PREVENTION OF TRIGEMINAL NEURALGIA” (THE JOHNS HOPKINS UNIVERSITY, priority 2022, published 2025):

Tests used:
NRF2 target genes [1] = test: Quantitative PCR of NRF2 target genes from maxillary nerves; format: in vivo, mouse; details: qPCR normalized to Actb, 11 days of treatment, i.p.; for Hmox1 expression in maxillary nerves / Prdx1 expression in maxillary nerves / Txnrd1 expression in maxillary nerves: exemestane 10 or JQ-1 40 mg/kg
Method: FIGS. 17A-17J show differential upregulation of NRF2 target genes after treatment with exemestane and JQ-1. Quantitative PCR analysis of Ngo1, Hmox1 Txnrd1, Prdx1, and Gclc, as indicated, normalized to Actb from maxillary nerves of mice after 11 days of treatment with either exemestane (FIGS. 17A-17E; 10 mg/kg, i.p.) or JQ-1 (FIGS. 17F-17J; 40 mg/kg, i.p.) compared to vehicle is shown. Points represent individual mice. Median and range depicted. *=P<0.05. **=P<0.01, and ns=P>0.05 by two-tailed unpaired Student's t-test.
DNA/RNA Isolation. PCR, and Quantitative-PCR (q-PCR) Total cellular or tissue DNA/RNA was extracted using the DNeasy Blood & Tissue Kit (Qiagen) for DNA or RNeasy Plus Universal Kit (Qiagen) for RNA per the manufacturer's instructions. PCR was performed with the Platinum Taq DNA Polymerase High Fidelity Kit (Invitrogen), whereas q-PCR was performed with the TaqMan RNA-to-Ct I-Step Kit (Applied Biosystems).

NRF2 target genes [2] = test: Upregulation of canonical NRF2 target genes (no method given); format: cell-based
NRF2 target genes [3] = test: RNA-sequencing of primary human dermal fibroblasts; format: cell-based; details: 48 hours, 0.25 μM JQ-1
Method: RNA-sequencing RNA sequencing was performed as previously described (See Shin, J. Y. et al. Sci Transl Med 11, eaaw0790 (2019)). To assess the transcriptional signature of JQ-1, total RNA was isolated from three independent human fibroblast lines after 48 hours of treatment with DMSO or 0.25 μM JQ-1 using TRizol and RNeasy isolation columns (Qiagen) as per the manufacturer's instructions. DNA was digested with DNase treatment. All samples had RNA integrity numbers 9.60 or higher as measured with an Agilent 2100 Bioanalyzer. mRNA was enriched by poly-A selection, prepped using an Illumina TruSeq mRNA sample preparation kit, and sequenced by Illumina HiSeq 2000.
Differential Gene Expression and Pathway Enrichment Analyses Differential gene expression analysis was performed using BioJupies 126.

NRF2 target genes [4] = details: corneal fibroblasts and monocytes; cited from earlier work

## C=C1C[C@@H]2[C@H](CC[C@]3(C)C(=O)CC[C@@H]23)[C@@]2(C)C=CC(=O)C=C12 [exemestane, 6-methylenandrosta-1,4-diene-3,17-dione]
NRF2 target genes [1]; exemestane 10 mg/kg
  Nqo1 expression in maxillary nerves: upregulated
NRF2 target genes [1]
  Hmox1 expression in maxillary nerves: upregulated
  Prdx1 expression in maxillary nerves: upregulated
  Txnrd1 expression in maxillary nerves: upregulated
NRF2 target genes [2]
  induction of the canonical NRF2 target Nqo1: upregulated the canonical NRF2 target Ngo1

## Cc1sc2c(c1C)C(c1ccc(Cl)cc1)=N[C@@H](CC(=O)OC(C)(C)C)c1nnc(C)n1-2 [JQ-1, (S)-tert-butyl 2-(4-(4-chlorophenyl)-2,3,9-trimethyl-6H-thieno[3,2-f][1,2,4]triazolo[4,3-a][1,4]diazepin-6-yl)acetate]
NRF2 target genes [3]
  expression of canonical NRF2 target genes (NQO1, FTL, PRDX1, TXN, EGR1): upregulated a number of canonical NRF2 target genes
  rank of the NRF2 pathway in gene ontology and genetic network analyses: second most upregulated pathway
NRF2 target genes [1]
  Hmox1 expression in maxillary nerves: most potently upregulated
  Prdx1 expression in maxillary nerves: upregulated
  Txnrd1 expression in maxillary nerves: did not increase
NRF2 target genes [4]
  upregulation of NQO1 and HMOX1: upregulates NQO1 and HMOX1
